Consider one molecule from article PMC11995503 (Molecular Cancer, 2025).

One series has as its system KDR/VEGFR2. The series can be described thus: KDR inhibition. Format: biochemical.
For series [1] the following is noted: life-threatening side effects; cited from earlier work.
For a further series, the system named is BP-CML. As to conditions: BP-CML cohort, cited from earlier work.

`Cc1ccc(C(=O)Nc2ccc(CN3CCN(C)CC3)c(C(F)(F)F)c2)cc1C#Cc1cnc2cccnn12` [Ponatinib]: the “KDR inhibition potency relative to KF1601” value in the series on KDR/VEGFR2 is “tenfold greater”. In series [1], the arterial obstruction is reported as 33%, the heart failure is 9% and the thromboembolism was 6%. For the same molecule, the “patients achieving a major cytological response” value in the series on BP-CML (within six months) was 23%. The median overall survival entry in the series on BP-CML is “seven”.
